Data on two compounds can be found in patent publication US20150038435A1, “N-TERMINALLY MODIFIED OLIGOPEPTIDES AND USES THEREOF” (Novo Nordisk A/S, priority 2012, published 2015).

pKi: −log10 of the molar value. Where “and” joins values, the source holds several entries; their conditions need not be identical. Identical values can stand only once. Non-standard residues stand in square brackets, D forms with d. Residues, ends and D or L forms follow the SMILES beside them. *: point of attachment. Lauroyl = CCCCCCCCCCCC(=O)*

Data set [1] can be described thus: Rat PK following intraintestinal injection. It is filed as in vivo. Particulars: of insulin, 60 nmol/kg intraintestinal, Composition 3: 3% compound, propylene glycol, diglycerol caprylate, Tween 20. On the procedure:
Anaesthetized rats were dosed intraintestinally (into jejunum) with reference compounds and N-terminally acylated peptide or oligopeptides of the invention. Plasma concentrations of the employed compounds as well as changes in blood glucose were measured at specified intervals for 4 hours or more post-dosing. Pharmacokinetic parameters were subsequently calculated using WinNonLin Professional (Pharsight Inc., Mountain View, Calif., USA).
The compositions for the intraintestinal injection model were prepared for example according to the following composition (in weight %):
The anesthetized rat was placed on a homeothermic blanket stabilized at 37° C. A 20 cm polyethylene catheter mounted a 1-ml syringe was filled with insulin composition or vehicle. A 4-5 cm midline incision was made in the abdominal wall. […]
Blood samples for the determination of whole blood glucose concentrations were collected in heparinised 10 μl capillary tubes by puncture of the capillary vessels in the tail tip. Blood glucose concentrations were measured after dilution in 500 μl analysis buffer by the glucose oxidase method using a Biosen autoanalyzer (EKF Diagnostic Gmbh, Germany). […]
Samples were collected for determination of the plasma insulin concentration. […] Plasma concentrations of the insulin analogues were measured in a immunoassay. […]

Data set [2] relates to GI juice. The data set can be described thus: Inhibition of GI juice degradation of insulin analogue and GLP-1 analogue. It is filed as biochemical. The settings on record: compound 1 mM, rat GI juice. On the procedure: 96 well plates were coated by incubating with 0.4% Bovine serum albumin (BSA) solution for minimum of 60 min. […] 1% TFA), 30 μl of a substrate (100 μM insulin analogue or GLP-1 analogue in buffer) and 30 μl of N-terminally acylated peptide or oligopeptide of the invention (10 mM) were added. The plates were pre-incubated (before adding GI juice) for 60 min at 37° C. After addition of 30 μl of GI juice (10-times diluted in buffer), the plates were incubated for 60 min/37° C. on shaker. […] 1% TFA and spun down in plates (4500 rpm for 10 min). Samples were diluted 5 times with the buffer prior to LC-MS analysis. Standard samples (0.1, 0.5, 1.0, 5.0, 10.0 μM) were prepared and treated as the samples. Standard curve was analysed both at the beginning and the end of the sequence. Two replicates of each tested conditions were included. Ion suppression was assessed by analyzing a standard at 1 μM and at 10 μM with 1 mM inhibitor present. Intact insulin or GLP-1 analoues were determined at each sample. The results were plotted against the incubation time. […] The half-lives were expressed relative to the half-live of the insulin or GLP-1 analogue without inhibitor present by dividing the half-lives obtained in the presence of inhibitor with those obtained in the absence of inhibitors. GI juice was prepared from male Sprague Dawley rats (200-250 g) by excising approximately 20 cm piece of mid jejunum and rinsing the inside with 2.5 ml 0.9% sodium chloride solution. The sodium chloride solution was collected in a centrifuge tube, pooled from all rats (20) and centrifuged at 4500 rpm./10 min/4° C. The supernatant was aliquoted in tubes and stored at −80° C.
A14E, B25H, B29K(N(eps)Octadecanedioyl-γGlu-OEG-OEG), desB30 human insulin and N-epsilon26-[2-(2-{2-[2-(2-{2-[(S)-4-Carboxy-4-(17-carboxyheptadecanoylamino)-butyrylamino]ethoxy}ethoxy)acetylamino]ethoxy}ethoxy)acetyl][Aib8,Arg34]GLP-1-(7-37) were used as standards in this assay.
For experiments repeated more than two times, standard deviation is given

The target of data set [3] is Chymotrypsin. The experiment in a line: Inhibition of enzymatic degradation of a chromogenic substrate (Example 202). It counts as biochemical. Particulars: substrate N-succinyl-Ala-Ala-Pro-Phe-p-Nitroanilide. From the text:
The use of chromogenic substrates to monitor activity of proteolytic enzymes is known in the field (for example DelMar, E. G., et al., Anal. Biochem., 99, 316-320, (1979)). For example, N-succinyl-Ala-Ala-Pro-Phe-p-Nitroanilide is commonly used substrate for measuring chymotrypsin activity. Enzymatic cleavage of 4-nitroanilide substrates yields 4-nitroaniline (yellow color under alkaline conditions).
An assay following the increase in absorbance at 395 nm as a function of time was established in 96 well format using Varioskan Flash Multimode Meter (Thermo Scientific). Each well contained 70 μl of Dulbecco's phosphate buffer saline (Invitrogen catalogue #14190-094), 10 μl of N-succinyl-Ala-Ala-Pro-Phe-p-Nitroanilide (Sigma cat# S 7388) in DMSO (different concentrations were used in order to obtain the inhibition constant), 10 μl of N-terminally acylated peptide or oligopeptide of the invention in varying concentration and 10 μl of a stock solution of an enzyme (chymotrypsin, trypsin, elastase, etc.). The incubations were performed at 37° C. Absorbance at 395 nm was measured immediately after addition of the enzyme to the 96 well plate and also every minute for the next 80 minutes. The concentration of the enzyme was optimized to allow determination of slopes for the time course of initial absorbance increase with and without added inhibitors. The slopes were determined by linear regression of the linear part of the fluorescence trace (for example, the first 10 min of the reaction). Each assay was performed in duplicate and average of the two traces was included in the calculations. The relative effect of N-terminally acylated peptide or oligopeptides of the invention on enzymatic degradation of N-succinyl-Ala-Ala-Pro-Phe-p-Nitroanilide was obtained by comparison of the slopes achieved by the same concentration of the N-terminally acylated peptide or oligopeptides. […] This was done by plotting the slopes achieved with different concentrations of the N-terminally acylated peptide or oligopeptides of the invention as a function of their concentrations and fitting the experimental results using, for example, sigmoidal logistic regression (2 parameters, Sigma Plot v 11). Inhibition constants for the interaction between the N-terminally acylated peptide or oligopeptides of the invention and proteolytic enzymes were also obtained by performing the assay described above with varying concentrations of the inhibitor and substrate and analyzing the results, for example, by double reciprocal transformation as known to the person skilled in the art and described for example in Hubalek, F. et al., J. Med. Chem. 47, 1760-1766 (2004).

As to `CCCCCCCCCCCC(=O)N[C@H](C)C(=O)N[C@H](C)C(=O)N1CCC[C@@H]1C(=O)N[C@H](Cc1ccccc1)C(=O)O` [Example 1, N-dodecanoyl-DAla-DAla-DPro-DPhe-OH] (Lauroyl-[dA][dA][dP][dF]-OH), the Bioavailability in data set [1] was 4.5 ± 2.7%. Further, the “Half Life fold increase (over solution w/o N-terminally acylated (oligo)peptide)” value in data set [2] was determined as 5.0. For the same compound, the “Half Life of insulin analogue” value in data set [2] (37° C.) is given as 13.0 min.
The term pKi denotes the Ki on a negative log10 scale, so that one unit is a factor of ten. Regarding `CCCCCCCCCCCC(=O)N[C@@H](C)C(=O)N[C@@H](C)C(=O)N1CCC[C@H]1C(=O)N[C@@H](Cc1ccccc1)C(=O)O` [Example 34, N-dodecanoyl-Ala-Ala-Pro-Phe-OH] (Lauroyl-AAPF-OH), in data set [3] (chymotrypsin), the pKi was ~3.89 and ~3.82; the “kind of enzyme inhibition” value is on record as “competitive inhibition”. This compound also gave a negative-log Ki (pKi) in data set [3] of 3.89.
